From patent US20260285850A1, “SUBSTITUTED OXAZOLIDINONES AND IMIDAZOLINONES AS HERBICIDES” (FMC CORPORATION, priority 2023, published 2026)

What was measured:
Type in all cases: in vivo
[1] = system: barnyardgrass (Echinochloa crus-galli); assay: Test A preemergence soil spray, visual injury rating 0-100; settings: 10 days, 0 = no effect, 100 = complete control
In short: (§1)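 Plants were grown in a loam soil-sand blend and treated with test chemical in a non-phytotoxic solvent mixture containing surfactant, either sprayed on soil preemergence or applied postemergence to 2-10 cm plants. After 10 days in a greenhouse, injury was scored visually against untreated controls, 0 meaning no effect and 100 complete control.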

[2] = system: blackgrass (Alopecurus myosuroides); assay: as above; settings: 10 days, 0 = no effect, 100 = complete control
In short: as §1

[3] = system: corn (Zea mays); assay: as above; settings: 10 days, 0 = no effect, 100 = complete control
In short: as §1

[4] = system: green foxtail (Setaria viridis); assay: as above; settings: 10 days, 0 = no effect, 100 = complete control
In short: as §1

[5] = system: kochia (Bassia scoparia); assay: as above; settings: 10 days, 0 = no effect, 100 = complete control
In short: as §1

[6] = system: oat, wild (wild oat, Avena fatua); assay: as above; settings: 10 days, 0 = no effect, 100 = complete control
In short: as §1

[7] = system: palmer (palmer amaranth, palmer pigweed, Amaranthus palmeri); assay: as above; settings: 10 days, 0 = no effect, 100 = complete control
In short: as §1

[8] = system: ragweed (common ragweed, Ambrosia artemisiifolia); assay: as above; settings: 10 days, 0 = no effect, 100 = complete control
In short: as §1

[9] = system: ryegrass, Italian (italian ryegrass, Lolium multiflorum); assay: as above; settings: 10 days, 0 = no effect, 100 = complete control
In short: as §1

[10] = system: soybean (Glycine max); assay: as above; settings: 10 days, 0 = no effect, 100 = complete control
In short: as §1

[11] = system: wheat (Triticum aestivum); assay: as above; settings: 10 days, 0 = no effect, 100 = complete control
In short: as §1

[12] = system: barnyardgrass (Echinochloa crus-galli); assay: Test A postemergence application, visual injury rating 0-100; settings: 10 days
In short: as §1

[13] = system: blackgrass (Alopecurus myosuroides); assay: as above; settings: 10 days
In short: as §1

[14] = system: corn (Zea mays); assay: as above; settings: 10 days
In short: as §1

[15] = system: galium (catchweed bedstraw, Galium aparine); assay: as above; settings: 10 days
In short: as §1

[16] = system: green foxtail (Setaria viridis); assay: as above; settings: 10 days
In short: as §1

[17] = system: horseweed (Erigeron canadensis); assay: as above; settings: 10 days
In short: as §1

[18] = system: kochia (Bassia scoparia); assay: as above; settings: 10 days
In short: as §1

[19] = system: oat, wild (wild oat, Avena fatua); assay: as above; settings: 10 days
In short: as §1

[20] = system: palmer (palmer amaranth, palmer pigweed, Amaranthus palmeri); assay: as above; settings: 10 days
In short: as §1

[21] = system: ragweed (common ragweed, Ambrosia artemisiifolia); assay: as above; settings: 10 days
In short: as §1

[22] = system: ryegrass, Italian (italian ryegrass, Lolium multiflorum); assay: as above; settings: 10 days
In short: as §1

[23] = system: soybean (Glycine max); assay: as above; settings: 10 days
In short: as §1

[24] = system: wheat (Triticum aestivum); assay: as above; settings: 10 days
In short: as §1

[25] = system: barnyardgrass (Echinochloa crusgalli); assay: Test B flooded paddy test, visual plant response rating 0-100; settings: 250 g ai/ha, Flood, applied to paddy water, evaluated after 13 days
In short: (§2)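 Compounds applied to standing paddy water (3 cm above soil, maintained for the test duration) on 2-leaf-stage plants; visual rating vs controls at 13 days, greenhouse.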

[26] = system: ducksalad (Heteranthera limosa); assay: as above; settings: 250 g ai/ha, Flood, applied to paddy water, evaluated after 13 days
In short: as §2

[27] = system: rice (Oryza sativa); assay: as above; settings: 250 g ai/ha, Flood, applied to paddy water, evaluated after 13 days
In short: as §2

[28] = system: sedge, umbrella (small-flower umbrella sedge, Cyperus difformis); assay: as above; settings: 250 g ai/ha, Flood, applied to paddy water, evaluated after 13 days
In short: as §2

[29] = 31 g ai/ha, postemergence, 0 = no effect, 100 = complete control
[30] = Postemergence, 125 g ai/ha, 0 is no effect, 100 is complete control

COC(=O)C1=CCC(NC(=O)C2(C)CN(c3cc(F)cc(F)c3)C(=O)O2)C1 (stereo not shown) [Compound 21]
30: Ragweed plant response rating (0-100) ([8]; 31 g ai/ha) | Ragweed plant response rating (0 to 100 scale) ([8]; 125 g ai/ha)
20: Horseweed plant response rating (0-100) [17, 29]
50: Barnyardgrass plant response rating (0-100) ([1]; 31 g ai/ha) | Ryegrass, Italian plant response rating (0-100) ([9]; 31 g ai/ha) | Soybean plant response rating (0-100) ([10]; 31 g ai/ha)
70: Horseweed plant response rating (0 to 100 scale) [17, 30] | Ragweed plant response rating (0 to 100 scale) [21, 30]
90: Blackgrass plant response rating (0 to 100 scale) ([2]; 125 g ai/ha) | Corn plant response rating (0 to 100 scale) ([3]; 125 g ai/ha) | Foxtail, Green plant response rating (0-100) ([4]; 31 g ai/ha) | Kochia plant response rating (0 to 100 scale) ([5]; 125 g ai/ha) | Ryegrass, Italian plant response rating (0 to 100 scale) ([9]; 125 g ai/ha) | Wheat plant response rating (0 to 100 scale) ([11]; 125 g ai/ha) | Blackgrass plant response rating (0-100) [13, 29] | Foxtail, Green plant response rating (0-100) [16, 29] | Foxtail, Green plant response rating (0 to 100 scale) [16, 30] | Oat, Wild plant response rating (0-100) [19, 29] | Amaranth, Palmer / Pigweed, Palmer plant response rating (0 to 100 scale) [20, 30] | Ryegrass, Italian plant response rating (0-100) [22, 29] | Soybean plant response rating (0 to 100 scale) [23, 30] | Wheat plant response rating (0-100) [24, 29] | Wheat plant response rating (0 to 100 scale) [24, 30] | Plant response rating, Barnyardgrass (0 to 100 scale, 0 is no effect and 100 is complete control) [25] | Plant response rating, Ducksalad (0 to 100 scale, 0 is no effect and 100 is complete control) [26] | Plant response rating, Rice (0 to 100 scale, 0 is no effect and 100 is complete control) [27]
100: Barnyardgrass plant response rating (0 to 100 scale) ([1]; 125 g ai/ha) | Foxtail, Green plant response rating (0 to 100 scale) ([4]; 125 g ai/ha) | Amaranth, Palmer plant response rating (0 to 100 scale) ([7]; 125 g ai/ha) | Barnyardgrass plant response rating (0-100) [12, 29] | Barnyardgrass plant response rating (0 to 100 scale) [12, 30] | Blackgrass plant response rating (0 to 100 scale) [13, 30] | Corn plant response rating (0-100) [14, 29] | Corn plant response rating (0 to 100 scale) [14, 30] | Oat, Wild plant response rating (0 to 100 scale) [19, 30]
95: Plant response rating, Sedge, Umbrella (0 to 100 scale, 0 is no effect and 100 is complete control) [28]
60: Corn plant response rating (0-100) ([3]; 31 g ai/ha) | Oat, Wild plant response rating (0-100) ([6]; 31 g ai/ha) | Amaranth, Palmer plant response rating (0-100) [20, 29]
0: Blackgrass plant response rating (0-100) ([2]; 31 g ai/ha) | Kochia plant response rating (0-100) ([5]; 31 g ai/ha)
80: Oat, Wild plant response rating (0 to 100 scale) ([6]; 125 g ai/ha) | Soybean plant response rating (0 to 100 scale) ([10]; 125 g ai/ha) | Wheat plant response rating (0-100) ([11]; 31 g ai/ha) | Galium plant response rating (0-100) [15, 29] | Galium plant response rating (0 to 100 scale) [15, 30] | Kochia plant response rating (0-100) [18, 29] | Kochia plant response rating (0 to 100 scale) [18, 30] | Soybean plant response rating (0-100) [23, 29]
40: Amaranth, Palmer plant response rating (0-100) ([7]; 31 g ai/ha) | Ragweed plant response rating (0-100) [21, 29] | Ryegrass, Italian plant response rating (0 to 100 scale) [22, 30]
